The values that follow come from US20090270350A1, “Pyridinone Pyrazole Urea and Pyrimidinone Pyrazole Urea Derivatives” (PFIZER INC., priority 2006, published 2009).

Read-outs that look alike come from different tables or passages of the source.

This assay has as its target p38α (Homo sapiens, UniProt Q16539). The assay can be described thus: p38α/MK2 cascade assay. It is filed as biochemical. The note with it: read-out: p38a/MK2 Cascade 40 min Pre-Incuabtion (% Inhibition): IC50. In short, it runs like this:
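In a cascade format, p38α was preincubated 40 min with inhibitor (1000–0.05 nM) before adding 1 nM nonactive MK2 (54-400), 5 μM MgATP and 0.5 μM FITC-Hsp27 peptide. Reaction ran 60 min in HEPES pH 7.5 with MgCl2, DTT, 2% DMSO, then EDTA-quenched. Peptide phosphorylation was measured by Caliper mobility shift to give IC50.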

Setting [1] is: Table 2, same p38α/MK2 cascade assay, 40 minutes preincubation.
The mark [2] stands for this setting: Table 1, inhibitors preincubated with p38α for 40 minutes, phosphorylation of Hsp27 peptide by MK-2, Caliper LabChip 3000.

Chain of p38α (Q16539 whole entry): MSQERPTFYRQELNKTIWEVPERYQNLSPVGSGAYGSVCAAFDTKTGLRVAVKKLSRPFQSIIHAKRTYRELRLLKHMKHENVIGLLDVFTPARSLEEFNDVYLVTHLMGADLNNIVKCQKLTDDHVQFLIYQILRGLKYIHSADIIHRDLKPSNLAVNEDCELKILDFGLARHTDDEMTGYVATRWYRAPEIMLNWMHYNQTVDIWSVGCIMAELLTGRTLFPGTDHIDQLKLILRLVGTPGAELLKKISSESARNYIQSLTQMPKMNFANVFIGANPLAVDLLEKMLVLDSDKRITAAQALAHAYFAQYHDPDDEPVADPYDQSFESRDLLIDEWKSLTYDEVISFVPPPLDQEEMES

For the compound `Cc1ccc(C(=O)NCCN(C)C)cc1-n1c(C)cc(OCc2ccccc2CNC(=O)Nc2cc(C(C)(C)C)nn2-c2ccc(Cl)c(O)c2)c(Cl)c1=O` [Example 231, 3-{4-[(2-{[({[3-tert-butyl-1-(4-chloro-3-hydroxyphenyl)-1H-pyrazol-5-yl]amino}carbonyl)amino]methyl}benzyl)oxy]-3-chloro-6-methyl-2-oxopyridin-1(2H)-yl}-N-[2-(dimethylamino)-ethyl]-4-methylbenzamide], under setting [1], the IC50 was determined as 1.8 nM.
With `COc1ccc(Cn2c(C)cc(OCc3ccc(F)cc3CNC(=O)Nc3cc(C(C)(C)C)nn3-c3cccc(OCCO)c3)c(Cl)c2=O)cc1` [Example 60, 1-{3-tert-butyl-1-[3-(2-hydroxyethoxy)phenyl]-1H-pyrazol-5-yl}-3-[2-({[3-chloro-1-(4-methoxybenzyl)-6-methyl-2-oxo-1,2-dihydropyridin-4-yl]oxy}methyl)-5-fluorobenzyl]urea], under setting [2], the IC50 amounted to 3.7 nM.
With `COCCNC(=O)c1ccc(C)c(-n2c(C)cc(OCc3ccccc3CNC(=O)Nc3cc(C(C)(C)C)nn3-c3ccc(O)cc3)c(Cl)c2=O)c1` [Example 218, 3-{4-[(2-{[({[3-tert-butyl-1-(4-hydroxyphenyl)-1H-pyrazol-5-yl]amino}carbonyl)amino]methyl}benzyl)oxy]-3-chloro-6-methyl-2-oxopyridin-1(2H)-yl}-N-(2-methoxyethyl)-4-methyl-benzamide], the IC50 under setting [1] was determined as 1.81 nM.
The same measure, in the same setting: then `COc1ccccc1Cn1c(C)cc(OCc2ccccc2CNC(=O)Nc2cc(C(C)(C)C)nn2-c2ccc(Cl)c(O)c2)c(C)c1=O` [Example 275, 1-[3-tert-butyl-1-(4-chloro-3-hydroxyphenyl)-1H-pyrazol-5-yl]-3-[2-({[1-(2-methoxybenzyl)-3,6-dimethyl-2-oxo-1,2-dihydropyridin-4-yl]oxy}methyl)benzyl]urea], with 53.7 nM.
`COc1ccc(Cn2c(C)cc(OCc3ccccc3CNC(=O)Nc3cc(C(C)(C)C)nn3-c3cccc(O)c3)cc2=O)cc1` [Example 55, 1-[3-tert-butyl-1-(3-hydroxyphenyl)-1H-pyrazol-5-yl]-3-[2-({[1-(4-methoxybenzyl)-6-methyl-2-oxo-1,2-dihydropyridin-4-yl]oxy}methyl)benzyl]urea]: under setting [2], the IC50 was 24.3 nM.
Turning to `COc1ccc(Cn2c(C)cc(OCc3ccccc3CNC(=O)Nc3cc(C(C)(C)C)nn3-c3cccc(O)c3)c(C)c2=O)cc1Cl` [Example 259, 1-[3-tert-butyl-1-(3-hydroxyphenyl)-1H-pyrazol-5-yl]-3-[2-({[1-(3-chloro-4-methoxybenzyl)-3,6-dimethyl-2-oxo-1,2-dihydro-pyridin-4-yl]oxy}methyl)benzyl]urea], the IC50 under setting [1] was found to be 9.2 nM.
In the case of `COc1cccc(Cn2c(C)cc(OCc3ccc(F)cc3CNC(=O)Nc3cc(C(C)(C)C)nn3-c3ccc(O)c(Cl)c3)c(Cl)c2=O)c1` [Example 46, 1-[3-tert-butyl-1-(3-chloro-4-hydroxyphenyl)-1H-pyrazol-5-yl]-3-[2-({[3-chloro-1-(3-methoxybenzyl)-6-methyl-2-oxo-1,2-dihydropyridin-4-yl]oxy}methyl)-5-fluorobenzyl]urea], the IC50 under setting [2] was 4 nM.
The same measure, in the same setting: then `COc1ccc(Cn2c(C)cc(OCc3ccccc3CNC(=O)Nc3cc(C(C)(C)C)nn3-c3ccc(F)cc3F)c(Br)c2=O)c(OC)c1` [Example 121, 1-[2-({[3-bromo-1-(2,4-dimethoxybenzyl)-6-methyl-2-oxo-1,2-dihydropyridin-4-yl]oxy}methyl)benzyl]-3-[3-tert-butyl-1-(2,4-difluorophenyl)-1H-pyrazol-5-yl]urea], with 11 nM.
Consider `Cc1ccc(C(=O)NCCO)cc1-n1c(C)cc(OCc2ccccc2CNC(=O)Nc2cc(C(C)(C)C)nn2-c2ccc(O)c(Cl)c2)c(Cl)c1=O` [Example 224, 3-{4-[(2-{[({[3-tert-butyl-1-(3-chloro-4-hydroxyphenyl)-1H-pyrazol-5-yl]amino}carbonyl)amino]methyl}benzyl)oxy]-3-chloro-6-methyl-2-oxopyridin-1(2H)-yl}-N-(2-hydroxyethyl)-4-methylbenzamide], for which the IC50 under setting [1] was found to be 3.2 nM.
Turning to `CSc1ccccc1Cn1c(C)cc(OCc2ccccc2CNC(=O)Nc2cc(C(C)(C)C)nn2-c2ccc(Cl)c(O)c2)c(C)c1=O` [Example 277, 1-[3-tert-butyl-1-(4-chloro-3-hydroxyphenyl)-1H-pyrazol-5-yl]-3-{2-[({3,6-dimethyl-1-[2-(methylthio)benzyl]-2-oxo-1,2-dihydropyridin-4-yl}oxy)methyl]benzyl}urea], the IC50 under setting [1] turned out to be 131 nM.
On the same count and under the same terms, then `COc1ccc(Cn2c(C)cc(OCc3ccccc3CNC(=O)Nc3cc(C(C)(C)C)nn3-c3cccc(OCCO)c3)c(Cl)c2=O)cc1Cl` [Example 265, 1-{3-tert-butyl-1-[3-(2-hydroxyethoxy)phenyl]-1H-pyrazol-5-yl}-3-[2-({[3-chloro-1-(3-chloro-4-methoxybenzyl)-6-methyl-2-oxo-1,2-dihydropyridin-4-yl]oxy}methyl)benzyl]urea], with 8.4 nM.
`COc1ccc(Cn2c(C)cc(OCc3ccccc3CNC(=O)Nc3cc(C(C)(C)C)nn3-c3ccc(O)c(Cl)c3)c(Cl)c2=O)cc1` [Example 58, 1-[3-tert-butyl-1-(3-chloro-4-hydroxyphenyl)-1H-pyrazol-5-yl]-3-[2-({[3-chloro-1-(4-methoxybenzyl)-6-methyl-2-oxo-1,2-dihydropyridin-4-yl]oxy}methyl)benzyl]urea]: the IC50 under setting [2] was 4.6 nM.
On the same count and under the same terms, in the case of `COc1cccc(Cn2c(C)cc(OCc3ccccc3CNC(=O)Nc3cc(C(C)(C)C)nn3-c3cccc(O)c3)c(Cl)c2=O)c1` [Example 52, 1-[3-tert-butyl-1-(3-hydroxyphenyl)-1H-pyrazol-5-yl]-3-[2-({[3-chloro-1-(3-methoxybenzyl)-6-methyl-2-oxo-1,2-dihydropyridin-4-yl]oxy}methyl)benzyl]urea] it was 6.2 nM.
As for `COc1ccccc1Cn1c(C)cc(OCc2ccccc2CNC(=O)Nc2cc(C(C)(C)C)nn2-c2cccc(O)c2)c(Cl)c1=O` [Example 247, 1-[3-tert-butyl-1-(3-hydroxyphenyl)-1H-pyrazol-5-yl]-3-[2-({[3-chloro-1-(2-methoxybenzyl)-6-methyl-2-oxo-1,2-dihydropyridin-4-yl]oxy}methyl)benzyl]urea], the IC50 under setting [1] is 10.5 nM.
Consider `COc1cccc(Cn2c(C)cc(OCc3ccc(F)cc3CNC(=O)Nc3cc(C(C)(C)C)nn3-c3cccc(OCCOC4CCCCO4)c3)cc2=O)c1` (stereo not shown) [Example 34, 1-(3-tert-butyl-1-{3-[2-(tetrahydro-2H-pyran-2-yloxy)ethoxy]phenyl}-1H-pyrazol-5-yl)-3-[5-fluoro-2-({[1-(3-methoxybenzyl)-6-methyl-2-oxo-1,2-dihydropyridin-4-yl]oxy}methyl)benzyl]urea], for which the IC50 under setting [2] was 266 nM.
Still for that read-out and setting: in the case of `COC(=O)c1ccc(C)c(-n2c(C)cc(OCc3ccc(F)cc3CNC(=O)Nc3cc(C(C)(C)C)nn3-c3cccc(OC)c3)c(Cl)c2=O)c1` [Example 183, Methyl 3-{4-[(2-{[({[3-tert-butyl-1-(3-methoxyphenyl)-1H-pyrazol-5-yl]amino}carbonyl)amino]methyl}-4-fluorobenzyl)oxy]-3-chloro-6-methyl-2-oxopyridin-1(2H)-yl}-4-methylbenzoate] it was 2.26 nM.
